Results published in patent US10259810B2, “N-sulfonylated pyrazolo[3,4-b]pyridin-6-carboxamides and method of use” (AbbVie S.à.r.l., priority 2015, dated 2019).

Legend:
[1] = molecular target: T1, ΔF508-CFTR (Homo sapiens, UniProt P13569, DEL508-508); experiment: CFTR cell surface levels using HRP-tagged ΔF508-CFTR expressing CFBE cells, intrinsic corrector capacity; format: cell-based; design: % Activation: concentration or dose not given beside the values; details: HRP-tagged ΔF508-CFTR expressing CFBE41o- cells, compound alone (intrinsic corrector capacity), 20 hours at 33° C.; for EC50: read-out: EC50
T1 construct: host or cells: CFBE41o-, doxycycline-inducible
T1 sequence (P13569 with tags, fused parts or gaps DEL508-508): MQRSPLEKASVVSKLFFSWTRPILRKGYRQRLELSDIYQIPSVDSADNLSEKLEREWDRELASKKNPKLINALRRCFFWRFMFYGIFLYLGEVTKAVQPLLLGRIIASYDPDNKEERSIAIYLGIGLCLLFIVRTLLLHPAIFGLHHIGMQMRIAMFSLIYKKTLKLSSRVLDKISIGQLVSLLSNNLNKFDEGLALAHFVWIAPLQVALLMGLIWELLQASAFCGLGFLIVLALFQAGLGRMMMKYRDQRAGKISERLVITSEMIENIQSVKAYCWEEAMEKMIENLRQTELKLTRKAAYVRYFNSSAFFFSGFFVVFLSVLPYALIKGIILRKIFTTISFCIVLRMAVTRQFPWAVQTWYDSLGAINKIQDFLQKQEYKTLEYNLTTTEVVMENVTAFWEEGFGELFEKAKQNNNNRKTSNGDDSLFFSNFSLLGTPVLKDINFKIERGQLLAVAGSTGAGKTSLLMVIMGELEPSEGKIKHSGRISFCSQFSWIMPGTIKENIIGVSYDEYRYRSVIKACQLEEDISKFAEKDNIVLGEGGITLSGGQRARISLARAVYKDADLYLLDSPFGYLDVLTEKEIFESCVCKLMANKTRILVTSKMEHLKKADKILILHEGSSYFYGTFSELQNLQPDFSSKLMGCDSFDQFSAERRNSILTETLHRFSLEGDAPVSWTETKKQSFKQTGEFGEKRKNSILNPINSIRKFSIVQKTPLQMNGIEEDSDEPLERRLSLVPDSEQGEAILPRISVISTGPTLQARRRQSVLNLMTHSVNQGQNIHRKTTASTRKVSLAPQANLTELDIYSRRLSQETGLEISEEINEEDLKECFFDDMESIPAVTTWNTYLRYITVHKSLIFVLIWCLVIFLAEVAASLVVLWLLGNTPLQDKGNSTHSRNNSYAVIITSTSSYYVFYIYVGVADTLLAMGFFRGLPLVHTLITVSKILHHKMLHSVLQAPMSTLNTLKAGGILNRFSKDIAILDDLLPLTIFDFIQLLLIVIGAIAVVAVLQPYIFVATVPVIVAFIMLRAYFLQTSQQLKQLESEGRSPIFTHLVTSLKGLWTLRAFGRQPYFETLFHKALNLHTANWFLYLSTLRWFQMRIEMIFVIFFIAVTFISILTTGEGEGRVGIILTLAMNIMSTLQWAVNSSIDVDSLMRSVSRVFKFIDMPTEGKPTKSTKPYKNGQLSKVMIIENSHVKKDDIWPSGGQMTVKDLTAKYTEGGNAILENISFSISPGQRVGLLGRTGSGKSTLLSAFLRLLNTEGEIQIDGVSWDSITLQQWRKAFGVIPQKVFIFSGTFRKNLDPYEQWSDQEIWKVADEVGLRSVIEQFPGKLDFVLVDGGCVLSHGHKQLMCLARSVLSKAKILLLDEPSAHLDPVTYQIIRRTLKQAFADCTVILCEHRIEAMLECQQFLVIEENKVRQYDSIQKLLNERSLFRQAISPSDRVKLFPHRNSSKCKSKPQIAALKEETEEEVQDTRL
Method in brief: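 Read-out: chemiluminescent HRP activity of ECL4-HRP-tagged ΔF508-CFTR at the cell surface, 15 min substrate in dark. Normalized as 100×(sample−DMSO)/(positive control−DMSO).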

[2] = molecular target: T1, ΔF508-CFTR; experiment: CFTR cell surface levels using HRP-tagged ΔF508-CFTR expressing CFBE cells, in the presence of a co-corrector; format: cell-based; details: HRP-tagged ΔF508-CFTR CFBE cells, in the presence of 3 μM co-corrector; for EC50: read-out: EC50
Method in brief: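 Chemiluminescent read-out of surface HRP (15 min, dark) after PBS washes. Activity is normalized as 100×(sample−DMSO)/(3 μM co-corrector alone−DMSO).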

## COCCS(=O)(=O)NC(=O)c1cc(N2CCC(COC)CC2)c2c(C(C)C)nn(CC(C)C)c2n1 [Compound 265, N-(2-methoxyethanesulfonyl)-4-[4-(methoxymethyl)piperidin-1-yl]-1-(2-methylpropyl)-3-(propan-2-yl)-1H-pyrazolo[3,4-b]pyridine-6-carboxamide]
[1]
  % Activation: 240.8%
  EC50: 3330 nM
[2]
  % Activation: 427.8%
  EC50: 2140 nM

## CC(C)c1nn(C2CCCCC2)c2nc(C(=O)NS(C)(=O)=O)cc(-c3ccc(N(C)C)nc3)c12 [Compound 22, 1-cyclohexyl-4-[6-(dimethylamino)pyridin-3-yl]-N-(methanesulfonyl)-3-(propan-2-yl)-1H-pyrazolo[3,4-b]pyridine-6-carboxamide]
[1]
  % Activation: 161.5%
  EC50: 732 nM
[2]
  % Activation: 371.55%
  EC50: 503 nM

## COCCOCC1(F)CCCN(c2cc(C(=O)NS(C)(=O)=O)nc3c2c(C(C)C)nn3-c2ccc(F)cc2)C1 (stereo not shown) [Compound 346, 4-{3-fluoro-3-[(2-methoxyethoxy)methyl]piperidin-1-yl}-1-(4-fluorophenyl)-N-(methanesulfonyl)-3-(propan-2-yl)-1H-pyrazolo[3,4-b]pyridine-6-carboxamide]
[1]
  % Activation: 195.8%
  EC50: 308 nM
[2]
  % Activation: 375.1%
  EC50: 253 nM

## C[C@@H]1CN(c2cc(C(=O)NS(=O)(=O)N(C)C)nc3c2c(C2CCC2)nn3C2CCCCC2)CCN1Cc1ccccc1 [Compound 582, 4-[(3R)-4-benzyl-3-methylpiperazin-1-yl]-3-cyclobutyl-1-cyclohexyl-N-(dimethylsulfamoyl)-1H-pyrazolo[3,4-b]pyridine-6-carboxamide]
[1]
  % Activation: 75.38%
  EC50: 370 nM
[2]
  % Activation: 245.15%
  EC50: 271 nM

## CC(=O)N1CCCN(S(=O)(=O)NC(=O)c2cc(OCC3CCOCC3)c3c(C4CCC4)nn(-c4ccccc4)c3n2)CC1 [Compound 357, N-(4-acetyl-1,4-diazepane-1-sulfonyl)-3-cyclobutyl-4-[(oxan-4-yl)methoxy]-1-phenyl-1H-pyrazolo[3,4-b]pyridine-6-carboxamide]
[1]
  % Activation: 72.83%
  EC50: 115 nM
[2]
  % Activation: 229.8%
  EC50: 130 nM

## CC(C)c1nn(-c2ccccc2)c2nc(C(=O)NS(C)(=O)=O)cc(-c3ccc(N(C)C)cc3)c12 [Compound 7, 4-[4-(dimethylamino)phenyl]-N-(methanesulfonyl)-1-phenyl-3-(propan-2-yl)-1H-pyrazolo[3,4-b]pyridine-6-carboxamide]
[1]
  % Activation: 245%
  EC50: 636 nM
[2]
  % Activation: 420.63%
  EC50: 554 nM

## CCS(=O)(=O)NC(=O)c1cc(-c2ccc(OC)cc2)c2c(C)nn(-c3ccc(C)c(Cl)c3)c2n1 [Compound 114, 1-(3-chloro-4-methylphenyl)-N-(ethanesulfonyl)-4-(4-methoxyphenyl)-3-methyl-1H-pyrazolo[3,4-b]pyridine-6-carboxamide]
[1]
  % Activation: 130.85%
  EC50: 1140 nM
[2]
  % Activation: 277.45%
  EC50: 952 nM

## CC(C)c1nn(-c2ccc(F)cc2)c2nc(C(=O)NS(C)(=O)=O)cc(N3CCCC(C(F)F)C3)c12 (stereo not shown) [Compound 178, 4-[3-(difluoromethyl)piperidin-1-yl]-1-(4-fluorophenyl)-N-(methanesulfonyl)-3-(propan-2-yl)-1H-pyrazolo[3,4-b]pyridine-6-carboxamide]
[1]
  % Activation: 202.8%
  EC50: 347 nM
[2]
  % Activation: 381.73%
  EC50: 232 nM

## CC(C)Oc1nn(C2CCCCC2)c2nc(C(=O)NS(C)(=O)=O)cc(-c3ccc(CN4CCN(C)CC45COC5)cc3)c12 [Compound 641, 1-cyclohexyl-N-(methanesulfonyl)-4-{4-[(8-methyl-2-oxa-5,8-diazaspiro[3.5]nonan-5-yl)methyl]phenyl}-3-[(propan-2-yl)oxy]-1H-pyrazolo[3,4-b]pyridine-6-carboxamide]
[1]
  % Activation: 205.35%
  EC50: 74.9 nM
[2]
  % Activation: 443.12%
  EC50: 46.3 nM

## CC(C)c1nn(-c2ccc(F)cc2F)c2nc(C(=O)NS(C)(=O)=O)cc(-c3ccc(N4CCC(C#N)CC4)nc3)c12 [Compound 140, 4-[6-(4-cyanopiperidin-1-yl)pyridin-3-yl]-1-(2,4-difluorophenyl)-N-(methanesulfonyl)-3-(propan-2-yl)-1H-pyrazolo[3,4-b]pyridine-6-carboxamide]
[1]
  % Activation: 210.3%
  EC50: 734 nM
[2]
  % Activation: 377.9%
  EC50: 381 nM

## COCC1CCN(c2cc(C(=O)NS(C)(=O)=O)nc3c2c(C(C)C)nn3CC2CCC2)CC1 [Compound 262, 1-(cyclobutylmethyl)-N-(methanesulfonyl)-4-[4-(methoxymethyl)piperidin-1-yl]-3-(propan-2-yl)-1H-pyrazolo[3,4-b]pyridine-6-carboxamide]
[1]
  % Activation: 232.07%
  EC50: 598 nM
[2]
  % Activation: 420.17%
  EC50: 523 nM

## COCC1CCN(c2cc(C(=O)NS(C)(=O)=O)nc3c2c(C(C)C)nn3CC(C)C)CC1 [Compound 264, N-(methanesulfonyl)-4-[4-(methoxymethyl)piperidin-1-yl]-1-(2-methylpropyl)-3-(propan-2-yl)-1H-pyrazolo[3,4-b]pyridine-6-carboxamide]
[1]
  % Activation: 242.5%
  EC50: 969 nM
[2]
  % Activation: 478.6%
  EC50: 3330 nM

## O=C(NS(=O)(=O)C1CCOC1)c1cc(N2CCC(CCN3CCOCC3)CC2)c2c(C3CCC3)nn(-c3ccc(F)cc3)c2n1 (stereo not shown) [Compound 452, 3-cyclobutyl-1-(4-fluorophenyl)-4-{4-[2-(morpholin-4-yl)ethyl]piperidin-1-yl}-N-(oxolane-3-sulfonyl)-1H-pyrazolo[3,4-b]pyridine-6-carboxamide]
[1]
  % Activation: 239.8%
  EC50: 408 nM
[2]
  % Activation: 478.25%
  EC50: 942 nM

## CS(=O)(=O)NC(=O)c1cc(N2CC3(CCCC3)C2)c2c(C3CCC3)nn(-c3ccccc3)c2n1 [Compound 184, 4-(2-azaspiro[3.4]octan-2-yl)-3-cyclobutyl-N-(methanesulfonyl)-1-phenyl-1H-pyrazolo[3,4-b]pyridine-6-carboxamide]
[1]
  % Activation: 95.405%
  EC50: 719 nM
[2]
  % Activation: 282.7%
  EC50: 574 nM

## CC(C)c1nn(-c2cccc(N(C)C)c2)c2nc(C(=O)NS(C)(=O)=O)cc(-c3cnc(N(C)C)nc3)c12 [Compound 77, 1-[3-(dimethylamino)phenyl]-4-[2-(dimethylamino)pyrimidin-5-yl]-N-(methanesulfonyl)-3-(propan-2-yl)-1H-pyrazolo[3,4-b]pyridine-6-carboxamide]
[1]
  % Activation: 296.45%
  EC50: 639 nM
[2]
  % Activation: 449.85%
  EC50: 831 nM

## CC(C)c1nn(-c2cccc(N3CCOCC3)c2)c2nc(C(=O)NS(C)(=O)=O)cc(-c3cnc(N4CCC(C#N)CC4)nc3)c12 [Compound 99, 4-[2-(4-cyanopiperidin-1-yl)pyrimidin-5-yl]-N-(methanesulfonyl)-1-[3-(morpholin-4-yl)phenyl]-3-(propan-2-yl)-1H-pyrazolo[3,4-b]pyridine-6-carboxamide]
[1]
  % Activation: 414.8%
  EC50: 410 nM
[2]
  % Activation: 601.15%
  EC50: 337 nM
